From ChEMBL document CHEMBL5523725, “Fragment-Based Anti-inflammatory Agent Design and Target Identification: Discovery of AF-45 as an IRAK4 Inhibitor to Treat Ulcerative Colitis and Acute Lung Injury” (J Med Chem, 2024)
The source made the active and inactive calls. The rule behind the calls is not given here.

Columns and labels:
RAW264.7 [1] = assay: Antiinflammatory activity in LPS-induced mouse RAW264.7 cells assessed as inhibition of TNF-alpha mRNA transcription pretreated for 2 hrs followed by LPS stimulation and measured after 6 hrs by RT-qPCR analysis; format: functional, cell-based; details: dose 5-10 µM, time 8.0 hrs
[2] = molecular target: T1, Inhibitor of nuclear factor kappa-B kinase subunit beta (Homo sapiens) (UniProt O14920); assay: Inhibition of IKKbeta (unknown origin) at 10 uM relative to control
T1 sequence (whole entry): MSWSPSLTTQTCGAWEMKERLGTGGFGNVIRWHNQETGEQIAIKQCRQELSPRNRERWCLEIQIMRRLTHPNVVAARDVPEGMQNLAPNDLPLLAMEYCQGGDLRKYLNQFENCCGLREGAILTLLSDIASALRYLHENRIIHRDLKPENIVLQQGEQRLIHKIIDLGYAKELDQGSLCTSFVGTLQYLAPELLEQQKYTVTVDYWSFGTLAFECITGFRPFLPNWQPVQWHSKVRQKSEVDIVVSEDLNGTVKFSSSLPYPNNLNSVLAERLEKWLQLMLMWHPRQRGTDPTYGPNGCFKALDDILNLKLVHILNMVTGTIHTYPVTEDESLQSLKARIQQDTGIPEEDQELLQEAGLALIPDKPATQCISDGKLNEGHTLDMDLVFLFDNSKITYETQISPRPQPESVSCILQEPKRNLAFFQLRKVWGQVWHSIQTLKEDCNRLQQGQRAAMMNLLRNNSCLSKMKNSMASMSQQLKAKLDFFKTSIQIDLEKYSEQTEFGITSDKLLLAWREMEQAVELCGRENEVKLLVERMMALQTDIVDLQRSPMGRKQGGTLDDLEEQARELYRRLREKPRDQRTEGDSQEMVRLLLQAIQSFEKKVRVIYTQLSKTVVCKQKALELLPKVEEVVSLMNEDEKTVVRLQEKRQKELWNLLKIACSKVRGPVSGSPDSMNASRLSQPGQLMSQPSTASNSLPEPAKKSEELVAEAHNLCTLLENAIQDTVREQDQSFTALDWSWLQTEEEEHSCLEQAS

[3] = molecular target: Mitogen-activated protein kinase 14 (Homo sapiens) (UniProt Q16539); assay: Inhibition of p38alpha (unknown origin) at 10 uM relative to control
[4] = molecular target: Aurora kinase B (Homo sapiens) (UniProt Q96GD4); assay: Inhibition of human AurB assessed as residual activity at 10 uM by Eurofins kinase profiler method relative to control
RAW264.7 [5] = assay: Inhibition of NFkappaB/MAPK signaling pathway in mouse RAW264.7 cells assessed as reduction in LPS-induced JNK phosphorylation at 50 uM by Western blot analysis; format: cell-based
RAW264.7 [6] = assay: Inhibition of NFkappaB/MAPK signaling pathway in mouse RAW264.7 cells assessed as reduction in LPS-induced p38 phosphorylation at 50 uM by Western blot analysis; format: cell-based
Mus musculus [7] = assay: Antiinflammatory activity in male C57BL/6 mouse model of DSS-induced ulcerative colitis assessed as increase in body weight at 20 mg/kg, po administered for 11 days with subsequent administration of DSS for 8 days and measured on day 11; format: functional, organism-based; details: time 11.0 day
Mus musculus [8] = assay: Anti-colitis activity in male C57BL/6 mouse model of DSS-induced ulcerative colitis assessed as colon length at 10 mg/kg, po administered for 11 days with subsequent administration of DSS for 8 days (reference value: 5.2 cm); format: functional; details: time 11 day
Mus musculus [9] = assay: Antiinflammatory activity in male C57BL/6 mouse model of DSS-induced ulcerative colitis assessed as preservation of goblet cells at 10 to 20 mg/kg, po administered for 11 days with subsequent administration of DSS for 8 days by H and E staining based analysis; format: functional, organism-based; details: dose 10-20 mg/kg, time 11.0 day
Mus musculus [10] = assay: Antiinflammatory activity in male C57BL/6 mouse model of DSS-induced ulcerative colitis assessed as restoration of protein status at 10 to 20 mg/kg, po administered for 11 days with subsequent administration of DSS for 8 days by H and E staining based analysis; format: functional, organism-based; details: dose 10-20 mg/kg, time 11.0 day
Mus musculus [11] = assay: Antiinflammatory activity in male C57BL/6 mouse model of DSS-induced ulcerative colitis assessed as reversal of ruptured spleen at 10 to 20 mg/kg, po administered for 11 days with subsequent administration of DSS for 8 days by H and E staining based analysis; format: functional, organism-based; details: dose 10-20 mg/kg, time 11.0 day
Mus musculus [12] = assay: Antiinflammatory activity in male C57BL/6 mouse model of DSS-induced ulcerative colitis assessed as reduction in macrophage infiltration in spleen at 10 to 20 mg/kg, po administered for 11 days with subsequent administration of DSS for 8 days by F4/80 labeling based immunohistochemistry analysis; format: functional, organism-based; details: dose 10-20 mg/kg, time 11.0 day
Mus musculus [13] = assay: Antiinflammatory activity in LPS induced ip dosed C57BL/6 mouse model of acute lung injury assessed as reduction in […] of lung preadministered for 30 mins followed by LPS administration and measured after 6 hrs; format: functional, organism-based; details: dose 20-40 mg/kg, time 6.5 hrs
Mus musculus [14] = assay: Antiinflammatory activity in LPS induced C57BL/6 mouse model of acute lung injury assessed as inhibition of TNFalpha release in BALF at 20 to 40 mg/kg, ip preadministered for 30 mins followed by LPS administration and measured after 6 hrs by ELISA; format: functional, organism-based; details: dose 20-40 mg/kg, time 6.5 hrs
Mus musculus [15] = assay: Antiinflammatory activity in LPS induced C57BL/6 mouse model of acute lung injury assessed as reduction in inflammatory exudation in lung at 20 mg/kg, ip preadministered for 30 mins followed by LPS administration and measured after 6 hrs by H and E staining based analysis; format: functional, organism-based; details: time 6.5 hrs
Mus musculus [16] = assay: Antiinflammatory activity in LPS induced C57BL/6 mouse model of acute lung injury assessed as reduction in spleen over activation at 20 to 40 mg/kg, ip preadministered for 30 mins followed by LPS administration and measured after 6 hrs by H and E staining based analysis; format: functional, organism-based; details: dose 20-40 mg/kg, time 6.5 hrs
Mus musculus [17] = assay: Antiinflammatory activity in LPS induced C57BL/6 mouse model of acute lung injury assessed as reduction in number of macrophages in spleen at 20 to 40 mg/kg, ip preadministered for 30 mins followed by LPS administration and measured after 6 hrs by F4/80 labeling based immunohistochemical analysis; format: functional, organism-based; details: dose 20-40 mg/kg, time 6.5 hrs
[18] = Half life in male Sprague-Dawley rat at 1 mg/kg, iv administered via tail vein and measured upto 24 hrs; format: ADME, organism-based; details: in vivo
[19] = Tmax in male Sprague-Dawley rat at 1 mg/kg, iv administered via tail vein and measured upto 24 hrs; format: ADME, organism-based; details: in vivo
[20] = Cmax in male Sprague-Dawley rat at 1 mg/kg, iv administered via tail vein and measured upto 24 hrs; format: ADME, organism-based; details: in vivo
[21] = Clearance in male Sprague-Dawley rat at 1 mg/kg, iv administered via tail vein and measured upto 24 hrs; format: ADME, organism-based; details: in vivo
[22] = Tmax in male Sprague-Dawley rat at 10 mg/kg, po measured upto 24 hrs; format: ADME, organism-based; details: in vivo
RAW264.7 [23] = assay: cells; details: Mus musculus
Description: Antiinflammatory activity in LPS-induced mouse RAW264.7 cells assessed as inhibition of IL-6 release pretreated for 30 mins followed by LPS stimulation and measured after 24 hrs by ELISA

J774.A1 = assay: cells; details: Mus musculus
Description: Antiinflammatory activity in LPS-induced mouse J774.A1 cells assessed as inhibition of IL-6 release pretreated for 30 mins followed by LPS stimulation and measured after 24 hrs by ELISA

THP-1 = assay: cells; details: Homo sapiens
Description: Antiinflammatory activity in LPS-induced human THP-1 cells assessed as inhibition of TNF-alpha release pretreated for 30 mins followed by LPS stimulation and measured after 24 hrs by ELISA

Aurora kinase B (Homo sapiens), sequence (Q96GD4 whole entry): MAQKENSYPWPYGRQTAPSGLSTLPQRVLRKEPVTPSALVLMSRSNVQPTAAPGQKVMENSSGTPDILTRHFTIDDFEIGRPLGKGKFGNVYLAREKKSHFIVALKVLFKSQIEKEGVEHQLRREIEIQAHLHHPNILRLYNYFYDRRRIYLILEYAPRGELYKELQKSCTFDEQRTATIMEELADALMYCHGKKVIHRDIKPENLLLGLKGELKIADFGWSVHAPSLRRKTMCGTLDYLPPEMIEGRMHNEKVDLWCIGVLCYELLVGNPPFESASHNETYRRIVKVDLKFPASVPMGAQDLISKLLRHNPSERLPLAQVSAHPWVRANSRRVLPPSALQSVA
Mitogen-activated protein kinase 14 (Homo sapiens), sequence (Q16539 whole entry): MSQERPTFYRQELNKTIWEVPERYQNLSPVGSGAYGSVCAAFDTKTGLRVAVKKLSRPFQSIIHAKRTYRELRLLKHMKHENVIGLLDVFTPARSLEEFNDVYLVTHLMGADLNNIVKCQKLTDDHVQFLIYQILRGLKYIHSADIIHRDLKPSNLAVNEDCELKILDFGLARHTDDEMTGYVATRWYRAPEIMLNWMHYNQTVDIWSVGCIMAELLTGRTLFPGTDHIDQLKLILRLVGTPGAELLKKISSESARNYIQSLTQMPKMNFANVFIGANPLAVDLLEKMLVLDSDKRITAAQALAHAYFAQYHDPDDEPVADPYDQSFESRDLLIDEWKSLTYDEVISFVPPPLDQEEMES

COc1cc2c(O[C@H]3CC[C@@H](N)CC3)ncnc2cc1OCc1ccccc1
Activity (RAW264.7 [1]): Dose-Dependent Effect | inhibition [2]: -1.64% | inhibition [3]: 0.03% | Activity [4]: 70% | inhibition (RAW264.7 [5]): Active | inhibition (RAW264.7 [6]): Active | Activity (Mus musculus [7]): Active | Activity (Mus musculus [8]): 5.9 cm | Activity (Mus musculus [9]): Active | Activity (Mus musculus [10]): Active | Activity (Mus musculus [11]): Active | Activity (Mus musculus [12]): Active | Activity (Mus musculus [13]): Dose-Dependent Effect | Activity (Mus musculus [14]): Active | Activity (Mus musculus [15]): Active | Activity (Mus musculus [16]): Active | Activity (Mus musculus [17]): Active | half-life [18]: 168 min | Tmax [19]: 4.8 min | Cmax [20]: 6260 ng/mL | clearance [21]: 3.83 mL/min/kg | Tmax [22]: 3 h | IC50 (RAW264.7 [23]): 1270 nM | IC50 (J774.A1): 1540 nM | IC50 (THP-1): 600 nM
